In the OligoGym collection:
After the bases stand the sugars from the 5' end (letter, count) and the backbone: PS all phosphorothioate, else s phosphorothioate and o phosphodiester by linkage. Methylation of C is not given here. e = 2'-O-(2-methoxyethyl) (MOE); k = constrained ethyl (cEt); d = 2'-deoxy (DNA); m = 2'-O-methyl

Target: HSD17B13
Settings: ASO, HepaRG

## AGTTGCACCGTTTTGG (sugars k3 d10 k3, PS)
1 µM
  target mRNA inhibition: 55%

## GTTTACTCACTTCTGG (sugars k3 d10 k3, PS)
1 µM
  target mRNA inhibition: 29%

## CGCACACTGAAGCCAC (sugars k3 d10 k3, PS)
1 µM
  target mRNA inhibition: 56%

## CAGATTATTATGTGAT (sugars k3 d10 k3, PS)
1 µM
  target mRNA inhibition: 51%

## TGGCATGGCTACAGAT (sugars kkdddddddddkekek, PS)
1 µM
  target mRNA inhibition: 58%

## GTCCAGGTTGAGATAA (sugars k3 d10 k3, PS)
1 µM
  target mRNA inhibition: 60%

## AAGCATTGTTAGCTAA (sugars k3 d10 k3, PS)
1 µM
  target mRNA inhibition: 11%

## CATACCCATTCTAACT (sugars k3 d10 k3, PS)
1 µM
  target mRNA inhibition: 6%

## GCTTAGTGTAGAATTG (sugars k3 d10 k3, PS)
1 µM
  target mRNA inhibition: 16%

## ACCATAGGACATGGAG (sugars k3 d10 k3, PS)
1 µM
  target mRNA inhibition: 62%

## ACGCCTAGTTTTCGGC (sugars k3 d10 k3, PS)
1 µM
  target mRNA inhibition: 7%

## CTACCACATACGCATG (sugars k3 d10 k3, PS)
1 µM
  target mRNA inhibition: 25%

## TTCTCTTGGGTCCATT (sugars k3 d10 k3, PS)
1 µM
  target mRNA inhibition: 44%

## TAGTATAGTTATCTTC (sugars k3 d1 m1 d8 k3, PS)
1 µM
  target mRNA inhibition: 13%

## TTATCATACCACATAC (sugars k3 d10 k3, PS)
1 µM
  target mRNA inhibition: 19%

## TATAGAGGGTCCACTT (sugars k3 d10 k3, PS)
1 µM
  target mRNA inhibition: 17%

## ACTTTTAGGGAGGTAG (sugars k3 d10 k3, PS)
1 µM
  target mRNA inhibition: 20%

## AGTGCATCTTAAGATA (sugars kkdddddddddkekek, PS)
1 µM
  target mRNA inhibition: 27%

## CTATCAGAACAGTTCA (sugars k3 d10 k3, PS)
1 µM
  target mRNA inhibition: 48%

## TTAGAGAGCGATAGAT (sugars k3 d10 k3, PS)
1 µM
  target mRNA inhibition: 23%

## AGTTAGTATAGTTATC (sugars k3 d1 m1 d8 k3, PS)
1 µM
  target mRNA inhibition: 42%

## ACCCAGTATTCACAAA (sugars k3 d10 k3, PS)
1 µM
  target mRNA inhibition: 10%

## AACATCTCTGGGACCA (sugars kkdddddddddkekek, PS)
1 µM
  target mRNA inhibition: 36%

## TACTTGAACAGTCTTA (sugars k3 d9 k3 e1, PS)
1 µM
  target mRNA inhibition: 65%

## CAAGTTTTCACCTCAG (sugars k3 d10 k3, PS)
0.02 µM
  target mRNA inhibition: 17%
0.078 µM
  target mRNA inhibition: 41%
0.313 µM
  target mRNA inhibition: 75%
1 µM
  target mRNA inhibition: 93%
1.25 µM
  target mRNA inhibition: 92%
5 µM
  target mRNA inhibition: 95%

## ACTACAAGAGGTTATT (sugars k3 d10 k3, PS)
1 µM
  target mRNA inhibition: 46%

## GTAATCTTGAGGCAGG (sugars k3 d10 k3, PS)
1 µM
  target mRNA inhibition: 51%

## ACCAACTATGTAATAG (sugars k3 d10 k3, PS)
1 µM
  target mRNA inhibition: 47%

## GCATCTTAAGATACCC (sugars k3 d10 k3, PS)
0.02 µM
  target mRNA inhibition: 16%
0.078 µM
  target mRNA inhibition: 45%
0.313 µM
  target mRNA inhibition: 82%
1 µM
  target mRNA inhibition: 82%
1.25 µM
  target mRNA inhibition: 89%
5 µM
  target mRNA inhibition: 97%

## TGATATACGATGGAAC (sugars k3 d10 k3, PS)
1 µM
  target mRNA inhibition: 13%

## CTCAGGCTGTAAGAGT (sugars k3 d9 k3 e1, PS)
1 µM
  target mRNA inhibition: 21%

## GTTTUGGGCTAATGAA (sugars k3 d1 m1 d8 k3, PS)
1 µM
  target mRNA inhibition: 30%

## GACTCCAAGTAGGAGT (sugars k3 d10 k3, PS)
1 µM
  target mRNA inhibition: 0%

## AGGGAGGTAGCTTTTG (sugars k3 d10 k3, PS)
1 µM
  target mRNA inhibition: 46%

## GACATGAGGTTTTGAT (sugars k3 d10 k3, PS)
1 µM
  target mRNA inhibition: 52%

## AGATGGTAAGGAGTAG (sugars k3 d10 k3, PS)
1 µM
  target mRNA inhibition: 26%

## TTGTTACATCACCCAC (sugars k3 d10 k3, PS)
1 µM
  target mRNA inhibition: 34%

## GTGCATCTTAAGATAC (sugars kkdddddddddkekek, PS)
1 µM
  target mRNA inhibition: 20%

## CTTAAGATACCCAGGT (sugars kkdddddddddkekek, PS)
1 µM
  target mRNA inhibition: 34%

## CAGAGACATGAGGTTT (sugars k3 d9 k3 e1, PS)
1 µM
  target mRNA inhibition: 45%

## CTATTGATTGGCTTAA (sugars k3 d10 k3, PS)
1 µM
  target mRNA inhibition: 31%
